Results as given in ChEMBL document CHEMBL1131749, “Landomycin A inhibits DNA synthesis and G1/S cell cycle progression” (1999).

How the values were obtained:
Type in all cases: functional
[1] = species on record: Mus musculus; test: Inhibition of uptake of [3H]thymidine into DNA by murine smooth cells at a concentration of 80 nM after 16 hours
[2] = species on record: Mus musculus; test: Inhibition of uptake of [3H]thymidine into DNA by murine smooth cells at a concentration of 20 nM after 24 hours
[3] = species on record: Mus musculus; test: Inhibition of uptake of [3H]thymidine into DNA by murine smooth cells at a concentration of 20 nM after 20 hours
[4] = species on record: Mus musculus; test: Inhibition of uptake of [3H]thymidine into DNA by murine smooth cells at a concentration of 20 nM after 16 hours
[5] = species on record: Mus musculus; test: Inhibition of uptake of [3H]thymidine into DNA by murine smooth cells at a concentration of 200 nM after 24 hours
[6] = species on record: Mus musculus; test: Inhibition of uptake of [3H]thymidine into DNA by murine smooth cells at a concentration of 200 nM after 20 hours
[7] = species on record: Mus musculus; test: Inhibition of uptake of [3H]thymidine into DNA by murine smooth cells at a concentration of 200 nM after 16 hours
[8] = species on record: Mus musculus; test: Inhibition of uptake of [3H]thymidine into DNA by murine smooth cells at a concentration of 80 nM after 24 hours
[9] = species on record: Mus musculus; test: Inhibition of uptake of [3H]-thymidine into DNA by murine smooth cells at a concentration of 80 nM after 20 hours

Cc1cc(O)c2c(c1)C[C@@H](O)C1=C2C(=O)c2c(O)ccc(O[C@H]3C[C@@H](O)[C@H](O[C@H]4C[C@@H](O[C@H]5CC[C@H](O[C@H]6C[C@@H](O)[C@H](O[C@H]7C[C@@H](O[C@H]8CC[C@H](O)[C@H](C)O8)[C@H](O)[C@@H](C)O7)[C@@H](C)O6)[C@H](C)O5)[C@H](O)[C@@H](C)O4)[C@@H](C)O3)c2C1=O [LANDOMYCIN A]
Inhibition [1]: 5000 c.p.m./Abs | Inhibition [2]: 65000 c.p.m./Abs | Inhibition [3]: 45000 c.p.m./Abs | Inhibition [4]: 10000 c.p.m./Abs | Inhibition [5]: 20000 c.p.m./Abs | Inhibition [6]: 5000 c.p.m./Abs | Inhibition [7]: 0 c.p.m./Abs | Inhibition [8]: 60000 c.p.m./Abs | Inhibition [9]: 30000 c.p.m./Abs
